The results in this text go back to the NIST ThermoML archive (doi:10.1016/j.jct.2017.03.010).

Numbers after ± are expanded uncertainties.

For this data set the following is noted: Liquid, Closed cell (Static) method.

As for `FC(F)C(F)F` [1,1,2,2-tetrafluoroethane], the “vapor or sublimation pressure” value reads like this: (303.15 K) 613.8 ± 2.1 kPa; (313.15 K) 817.1 ± 2.7 kPa; (323.15 K) 1065.9 ± 3.5 kPa; (333.15 K) 1368.5 ± 4.5 kPa; (343.15 K) 1730.2 ± 5.7 kPa.

One may read the vapor or sublimation pressure as the equilibrium pressure above the liquid or solid.
